Data taken from ChEMBL document CHEMBL1687773 (Antimicrob Agents Chemother, 2010).
Activity calls are given as the source filed them. The calls are words filed in the database; no cut-off is given here.

Key:
[1] = tested on: Human immunodeficiency virus 1; assay: Antiviral activity against HIV1 NL4-3 harboring reverse transcriptase K103N mutant infected in human HeLaP4 cells assessed as inhibition of viral replication after 5 days by beta-galactosidase reporter assay; assay type: functional, organism-based; conditions: Human immunodeficiency virus 1, NL4-3, HeLaP4, 120 h
[2] = tested on: Human immunodeficiency virus 1; assay: Antiviral activity against HIV1 NL4-3 harboring reverse transcriptase V108I, E138K mutant infected in human SupT1 cells derived from 9 viral passages with lersivirine assessed as inhibition of viral replication after 21 days relative to drug sensitive HIV1 NL4-3; assay type: functional, SUP-T1
[3] = tested on: Human immunodeficiency virus 1; assay: Antiviral activity against HIV1 NL4-3 infected in human SupT1 cells derived from 11 viral passages assessed as inhibition of viral replication after 21 days relative to drug sensitive HIV1 NL4-3; assay type: functional, SUP-T1
[4] = molecular target: Human immunodeficiency virus type 1 reverse transcriptase (Human immunodeficiency virus 1, UniProt Q72547); assay: Inhibition of HIV1 reverse transcriptase activity by primer extension assay
[5] = tested on: Human immunodeficiency virus 1; assay: Antiviral activity against HIV1 NL4-3 infected in human MT2 cells assessed as inhibition of virus-induced cell death at 0.5 multiplicities of infection after 6 days; assay type: functional, organism-based; conditions: Human immunodeficiency virus 1, NL4-3, MT2, 144 h
[6] = molecular target: Human immunodeficiency virus type 1 reverse transcriptase (Human immunodeficiency virus 1, UniProt Q72547, K103N); assay: Inhibition of HIV1 HXB2 reverse transcriptase K103N mutant activity by primer extension assay
[7] = tested on: Human immunodeficiency virus type 1 reverse transcriptase (Human immunodeficiency virus 1), Q72547 [K101E]; assay: Inhibition of HIV1 histidine-tagged reverse transcriptase K101E mutant activity by primer extension assay
[8] = tested on: Human immunodeficiency virus type 1 reverse transcriptase (Human immunodeficiency virus 1), Q72547 [Y188C]; assay: Inhibition of HIV1 histidine-tagged reverse transcriptase Y188C mutant activity by primer extension assay
[9] = tested on: Human immunodeficiency virus type 1 reverse transcriptase (Human immunodeficiency virus 1), Q72547 [P236L]; assay: Inhibition of HIV1 histidine-tagged reverse transcriptase P236L mutant activity by primer extension assay
[10] = tested on: Human immunodeficiency virus 1; assay: Antiviral activity against HIV1 NL4-3 harboring reverse transcriptase V106A mutant infected in human HeLaP4 cells assessed as inhibition of viral replication after 5 days by beta-galactosidase reporter assay; assay type: functional, organism-based
[11] = tested on: Human immunodeficiency virus 1; assay: Antiviral activity against HIV1 NL4-3 harboring reverse transcriptase E138K mutant infected in human HeLaP4 cells assessed as inhibition of viral replication after 5 days by beta-galactosidase reporter assay; assay type: functional, organism-based
[12] = tested on: Human immunodeficiency virus 1; assay: Antiviral activity against HIV1 NL4-3 harboring reverse transcriptase M184V mutant infected in human HeLaP4 cells assessed as inhibition of viral replication after 5 days by beta-galactosidase reporter assay; assay type: functional, organism-based
[13] = tested on: Human immunodeficiency virus 1; assay: Antiviral activity against HIV1 NL4-3 harboring reverse transcriptase F227L mutant infected in human HeLaP4 cells assessed as inhibition of viral replication after 5 days by beta-galactosidase reporter assay; assay type: functional, organism-based
[14] = tested on: Human immunodeficiency virus 1; assay type: functional, organism-based; conditions: NL4-3, HeLaP4
[15] = tested on: Human immunodeficiency virus 1; assay: Ratio of EC50 for wild type HIV1 NL4-3 to EC50 for HIV1 NL4-3 harboring reverse transcriptase K103N mutant; assay type: functional
[16] = tested on: Human immunodeficiency virus 1; assay: Ratio of EC50 for wild type HIV1 NL4-3 to EC50 for HIV1 NL4-3 harboring reverse transcriptase K101E mutant; assay type: functional
[17] = tested on: Human immunodeficiency virus 1; assay: Ratio of EC50 for wild type HIV1 NL4-3 to EC50 for HIV1 NL4-3 harboring reverse transcriptase V106A mutant; assay type: functional
[18] = tested on: Human immunodeficiency virus 1; assay: Ratio of EC50 for wild type HIV1 NL4-3 to EC50 for HIV1 NL4-3 harboring reverse transcriptase V108I mutant; assay type: functional
[19] = tested on: Human immunodeficiency virus 1; assay: Ratio of EC50 for wild type HIV1 NL4-3 to EC50 for HIV1 NL4-3 harboring reverse transcriptase E138K mutant; assay type: functional
[20] = tested on: Human immunodeficiency virus 1; assay: Ratio of EC50 for wild type HIV1 NL4-3 to EC50 for HIV1 NL4-3 harboring reverse transcriptase Y181I mutant; assay type: functional
[21] = tested on: Human immunodeficiency virus 1; assay: Ratio of EC50 for wild type HIV1 NL4-3 to EC50 for HIV1 NL4-3 harboring reverse transcriptase M184V mutant; assay type: functional
[22] = tested on: Human immunodeficiency virus 1; assay: Ratio of EC50 for wild type HIV1 NL4-3 to EC50 for HIV1 NL4-3 harboring reverse transcriptase Y188C mutant; assay type: functional
[23] = tested on: Human immunodeficiency virus 1; assay: Ratio of EC50 for wild type HIV1 NL4-3 to EC50 for HIV1 NL4-3 harboring reverse transcriptase F227L mutant; assay type: functional
[24] = tested on: Human immunodeficiency virus 1; assay: Ratio of EC50 for wild type HIV1 NL4-3 to EC50 for HIV1 NL4-3 harboring reverse transcriptase E233V mutant; assay type: functional
[25] = tested on: Human immunodeficiency virus 1; assay: Ratio of EC50 for wild type HIV1 NL4-3 to EC50 for HIV1 NL4-3 harboring reverse transcriptase P236L mutant; assay type: functional
[26] = tested on: Human immunodeficiency virus 1; assay: Ratio of EC50 for wild type HIV1 NL4-3 to EC50 for HIV1 NL4-3 harboring reverse transcriptase L234I mutant; assay type: functional
[27] = tested on: Human immunodeficiency virus 1; assay: Ratio of EC50 for wild type HIV1 NL4-3 to EC50 for HIV1 NL4-3 harboring reverse transcriptase V106A, F227L mutant; assay type: functional
[28] = tested on: Human immunodeficiency virus 1; assay: Antiviral activity against HIV1 NL4-3 harboring reverse transcriptase V108I, E138K, F227F/L mutant infected in human SupT1 cells derived from 11 viral passages with lersivirine assessed as inhibition of viral replication after 21 days relative to drug sensitive HIV1 NL4-3; assay type: functional, SUP-T1
[29] = molecular target: Adenosine receptor A1 (Homo sapiens) (UniProt P30542); assay: Inhibition of human adenosine A1 receptor at up to 10 uM
[30] = molecular target: Beta-1 adrenergic receptor (Homo sapiens) (UniProt P08588); assay: Inhibition of human adrenergic beta1 receptor at up to 10 uM
[31] = molecular target: Beta-2 adrenergic receptor (Homo sapiens) (UniProt P07550); assay: Inhibition of human adrenergic beta2 receptor at up to 10 uM
[32] = molecular target: Type-1 angiotensin II receptor (Homo sapiens) (UniProt P30556); assay: Inhibition of human AT1 receptor at up to 10 uM
[33] = species: Homo sapiens; assay: Inhibition of human central benzodiazepine receptor at up to 10 uM
[34] = molecular target: D(1A) dopamine receptor (Homo sapiens) (UniProt P21728); assay: Inhibition of human dopamine D1 receptor at up to 10 uM
[35] = molecular target: 5-hydroxytryptamine receptor 1A (Homo sapiens) (UniProt P08908); assay: Inhibition of human 5-HT1A receptor at up to 10 uM
[36] = molecular target: 5-hydroxytryptamine receptor 1B (Homo sapiens) (UniProt P28222); assay: Inhibition of human 5-HT1B receptor at up to 10 uM
[37] = species: Homo sapiens; assay: Inhibition of human L-type calcium channel dihydropyridine binding site at up to 10 uM
[38] = molecular target: Amine oxidase [flavin-containing] A (Homo sapiens, UniProt P21397); assay: Inhibition of human MAO-A at up to 10 uM
[39] = species: Homo sapiens; assay: Inhibition of human tyrosine hydroxylase at up to 10 uM
[40] = tested on: HepG2; assay: Inhibition of DNA synthesis in human HepG2 cells assessed as [3H]-thymidine incorporation at up to 10 uM; assay type: functional, cell-based

Sequence of 5-hydroxytryptamine receptor 1A (Homo sapiens) (P08908 whole entry): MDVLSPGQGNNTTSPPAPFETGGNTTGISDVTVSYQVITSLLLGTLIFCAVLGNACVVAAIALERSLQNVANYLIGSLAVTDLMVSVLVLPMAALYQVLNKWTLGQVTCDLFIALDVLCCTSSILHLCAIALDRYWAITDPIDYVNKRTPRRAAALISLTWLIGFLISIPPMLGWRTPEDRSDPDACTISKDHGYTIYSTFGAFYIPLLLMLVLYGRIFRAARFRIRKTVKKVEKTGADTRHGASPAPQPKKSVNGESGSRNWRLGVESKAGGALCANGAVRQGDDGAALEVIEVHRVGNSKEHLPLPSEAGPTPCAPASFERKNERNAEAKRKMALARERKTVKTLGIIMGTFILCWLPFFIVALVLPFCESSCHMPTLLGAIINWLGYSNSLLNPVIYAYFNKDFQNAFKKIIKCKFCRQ
Sequence of Adenosine receptor A1 (Homo sapiens) (P30542 whole entry): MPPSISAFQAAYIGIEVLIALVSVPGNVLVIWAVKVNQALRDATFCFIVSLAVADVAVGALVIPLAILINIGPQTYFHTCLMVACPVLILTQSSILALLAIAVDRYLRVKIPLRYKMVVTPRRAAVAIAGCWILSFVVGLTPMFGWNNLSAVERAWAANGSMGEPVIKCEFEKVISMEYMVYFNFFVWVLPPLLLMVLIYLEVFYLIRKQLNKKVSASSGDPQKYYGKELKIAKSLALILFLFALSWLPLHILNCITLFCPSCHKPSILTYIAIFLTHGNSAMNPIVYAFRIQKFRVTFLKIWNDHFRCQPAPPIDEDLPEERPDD
Sequence of Beta-1 adrenergic receptor (Homo sapiens) (P08588 whole entry, looked up): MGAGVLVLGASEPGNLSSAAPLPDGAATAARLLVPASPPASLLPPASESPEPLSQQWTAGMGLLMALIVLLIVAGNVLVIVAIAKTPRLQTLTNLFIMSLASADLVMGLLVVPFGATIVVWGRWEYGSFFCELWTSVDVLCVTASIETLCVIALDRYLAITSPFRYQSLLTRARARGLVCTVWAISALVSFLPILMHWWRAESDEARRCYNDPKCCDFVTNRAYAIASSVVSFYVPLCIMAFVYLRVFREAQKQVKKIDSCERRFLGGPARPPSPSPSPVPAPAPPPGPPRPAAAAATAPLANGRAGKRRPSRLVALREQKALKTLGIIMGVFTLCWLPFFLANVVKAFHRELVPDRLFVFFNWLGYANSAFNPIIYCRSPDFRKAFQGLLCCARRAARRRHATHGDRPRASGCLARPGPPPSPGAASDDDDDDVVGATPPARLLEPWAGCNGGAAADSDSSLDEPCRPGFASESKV
Sequence of Beta-2 adrenergic receptor (Homo sapiens) (P07550 whole entry, looked up): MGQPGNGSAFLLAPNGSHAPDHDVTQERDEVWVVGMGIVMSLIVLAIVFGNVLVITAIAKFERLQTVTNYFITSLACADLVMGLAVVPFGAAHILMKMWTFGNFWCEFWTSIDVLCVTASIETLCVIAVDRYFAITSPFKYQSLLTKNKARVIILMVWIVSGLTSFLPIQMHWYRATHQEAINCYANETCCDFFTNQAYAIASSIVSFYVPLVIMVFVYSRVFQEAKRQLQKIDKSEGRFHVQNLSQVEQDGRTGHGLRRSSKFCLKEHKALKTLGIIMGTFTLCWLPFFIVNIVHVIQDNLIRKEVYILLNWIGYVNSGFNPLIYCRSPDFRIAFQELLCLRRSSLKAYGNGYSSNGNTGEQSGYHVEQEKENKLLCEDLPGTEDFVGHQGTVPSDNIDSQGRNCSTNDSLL
Sequence of Amine oxidase [flavin-containing] A (P21397 whole entry): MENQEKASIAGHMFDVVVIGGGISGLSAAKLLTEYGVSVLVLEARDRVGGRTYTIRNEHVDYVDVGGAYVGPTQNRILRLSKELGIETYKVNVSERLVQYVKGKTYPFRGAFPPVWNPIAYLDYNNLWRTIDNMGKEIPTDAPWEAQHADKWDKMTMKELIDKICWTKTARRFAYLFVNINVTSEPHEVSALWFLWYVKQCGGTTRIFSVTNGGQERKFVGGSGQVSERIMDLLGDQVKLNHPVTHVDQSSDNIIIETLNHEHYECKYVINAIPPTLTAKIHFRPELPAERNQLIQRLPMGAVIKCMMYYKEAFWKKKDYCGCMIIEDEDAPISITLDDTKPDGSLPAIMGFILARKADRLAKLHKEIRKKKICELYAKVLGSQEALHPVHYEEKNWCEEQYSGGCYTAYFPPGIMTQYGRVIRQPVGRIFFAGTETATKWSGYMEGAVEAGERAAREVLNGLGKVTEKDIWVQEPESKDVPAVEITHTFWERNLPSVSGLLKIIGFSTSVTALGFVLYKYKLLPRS
Sequence of Type-1 angiotensin II receptor (Homo sapiens) (P30556 whole entry): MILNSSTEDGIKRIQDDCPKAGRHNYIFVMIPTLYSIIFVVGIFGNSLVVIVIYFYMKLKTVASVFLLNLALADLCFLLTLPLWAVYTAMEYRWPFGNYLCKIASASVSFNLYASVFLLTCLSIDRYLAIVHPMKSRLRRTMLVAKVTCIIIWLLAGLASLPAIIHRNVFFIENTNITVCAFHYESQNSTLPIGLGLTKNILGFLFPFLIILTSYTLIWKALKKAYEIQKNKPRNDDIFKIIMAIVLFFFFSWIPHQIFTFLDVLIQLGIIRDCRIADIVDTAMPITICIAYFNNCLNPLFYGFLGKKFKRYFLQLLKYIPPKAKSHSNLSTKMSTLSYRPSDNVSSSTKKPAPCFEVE
Sequence of D(1A) dopamine receptor (Homo sapiens) (P21728 whole entry): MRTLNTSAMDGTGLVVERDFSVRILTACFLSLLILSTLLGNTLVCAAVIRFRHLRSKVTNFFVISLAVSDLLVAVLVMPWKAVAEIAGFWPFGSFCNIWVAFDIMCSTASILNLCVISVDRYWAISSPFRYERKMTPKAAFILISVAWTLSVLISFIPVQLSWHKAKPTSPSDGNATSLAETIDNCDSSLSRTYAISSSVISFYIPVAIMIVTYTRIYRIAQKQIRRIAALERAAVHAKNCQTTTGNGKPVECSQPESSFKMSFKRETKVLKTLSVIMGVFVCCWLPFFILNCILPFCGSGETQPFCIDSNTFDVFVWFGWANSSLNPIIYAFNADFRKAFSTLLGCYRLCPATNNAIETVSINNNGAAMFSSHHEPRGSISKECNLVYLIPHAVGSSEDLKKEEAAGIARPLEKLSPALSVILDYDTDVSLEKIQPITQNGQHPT
Sequence of 5-hydroxytryptamine receptor 1B (Homo sapiens) (P28222 whole entry): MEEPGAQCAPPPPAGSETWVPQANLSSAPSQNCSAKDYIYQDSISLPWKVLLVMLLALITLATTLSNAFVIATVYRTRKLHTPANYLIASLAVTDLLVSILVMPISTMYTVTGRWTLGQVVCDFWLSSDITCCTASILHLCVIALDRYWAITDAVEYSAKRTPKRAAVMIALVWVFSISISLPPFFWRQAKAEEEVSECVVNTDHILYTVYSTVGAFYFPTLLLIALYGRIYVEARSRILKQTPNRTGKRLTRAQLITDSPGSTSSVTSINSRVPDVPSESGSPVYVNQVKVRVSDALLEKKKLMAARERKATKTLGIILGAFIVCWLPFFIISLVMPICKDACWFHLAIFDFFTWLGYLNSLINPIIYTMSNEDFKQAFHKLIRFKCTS

In the case of `CCc1nn(CCO)c(CC)c1Oc1cc(C#N)cc(C#N)c1` [LERSIVIRINE], the EC50 [1] is reported as 7.05 nM, the “fold change (FC)” value [2] is reported as 14 and the “fold change (FC)” value [3] is reported as 0.6. The IC50 [4] was 118 nM, the EC50 [5] was 0.5 nM and the IC50 [6] was 215 nM. The inhibition [7] was “Active”, the inhibition [8] was “Active” and the inhibition [9] was “Active”. For the same molecule, the inhibition [10] was “Active”, the inhibition [11] was “Active” and the inhibition [12] was “Active”. For the same molecule, the inhibition [13] was “Active”, the inhibition [14] was “Active” and the “Ratio EC50” value [15] was 10. For the same molecule, the “Ratio EC50” value [16] was 10, the “Ratio EC50” value [17] was 10 and the “Ratio EC50” value [18] was 10. The “Ratio EC50” value [19] was 10, the “Ratio EC50” value [20] was 10 and the “Ratio EC50” value [21] was 10. The “Ratio EC50” value [22] was 10, the “Ratio EC50” value [23] was 10 and the “Ratio EC50” value [24] was 10. For the same molecule, the “Ratio EC50” value [25] was 10, the “Ratio EC50” value [26] was 20 and the “Ratio EC50” value [27] was >200. The “fold change (FC)” value [28] was 143, the inhibition [29] was “inactive” and the inhibition [30] was “inactive”. The inhibition [31] was “inactive”, the inhibition [32] was “inactive” and the inhibition [33] was “inactive”. For the same molecule, the inhibition [34] was “inactive”, the inhibition [35] was “inactive” and the inhibition [36] was “inactive”. For the same molecule, the inhibition [37] was “inactive”, the “inhibition (INH)” value [38] was “Not Active” and the inhibition [39] was “inactive”. The inhibition [40] was “inactive”.
